Source: the NIST ThermoML archive (doi:10.1016/j.jct.2012.02.015)
Numbers after ± are expanded uncertainties.

Conditions: 101.33 kPa, Liquid, Alternating current cell with electrodes

[Br-].[Rb+] [rubidium bromide]
Conditions | electrical conductivity [S/m]
1173 K | 151 ± 2
1184 K | 152 ± 2
1194 K | 153 ± 2
1206 K | 154 ± 2
1217 K | 154 ± 2
1232 K | 155 ± 2
1244 K | 156 ± 2
1258 K | 157 ± 2
1269 K | 157 ± 2

[I-].[Rb+] [rubidium iodide (RbI)]
Conditions | electrical conductivity [S/m]
1126 K | 120 ± 1
1154 K | 122 ± 1
1166 K | 124 ± 1
1188 K | 126 ± 1
1198 K | 127 ± 1
1210 K | 128 ± 1
1216 K | 128 ± 1
1233 K | 130 ± 1
1248 K | 132 ± 1
1260 K | 133 ± 1
1266 K | 133 ± 1
1297 K | 135 ± 1
1309 K | 136 ± 1

[I-].[K+] [potassium iodide]
Conditions | electrical conductivity [S/m]
1109 K | 158 ± 2
1126 K | 160 ± 2
1143 K | 161 ± 2
1152 K | 163 ± 2
1160 K | 164 ± 2
1170 K | 165 ± 2
1176 K | 165 ± 2
1186 K | 166 ± 2
1203 K | 166 ± 2
1225 K | 167 ± 2
1236 K | 167 ± 2
1246 K | 168 ± 2
1252 K | 167 ± 2
1269 K | 167 ± 2

[F-].[Li+] [lithium fluoride]
Conditions | electrical conductivity [S/m]
1131 K | 855 ± 9
1136 K | 858 ± 9
1151 K | 868 ± 9
1169 K | 877 ± 9
1173 K | 880 ± 9
1184 K | 886 ± 9
1190 K | 888 ± 9
1194 K | 890 ± 9
1198 K | 892 ± 9
1206 K | 896 ± 9
1210 K | 897 ± 9
1217 K | 900 ± 9
1221 K | 899 ± 9
1229 K | 905 ± 9
1232 K | 907 ± 9
1233 K | 907 ± 9
1237 K | 908 ± 9
1244 K | 911 ± 9
1245 K | 911 ± 9
1258 K | 916 ± 9
1267 K | 918 ± 9
1269 K | 918 ± 9
1283 K | 923 ± 9

[Br-].[K+] [potassium bromide]
Conditions | electrical conductivity [S/m]
1131 K | 190 ± 2
1136 K | 191 ± 2
1151 K | 194 ± 2
1169 K | 196 ± 2
1190 K | 200 ± 2
1198 K | 201 ± 2
1210 K | 202 ± 2
1221 K | 203 ± 2
1229 K | 204 ± 2
1233 K | 204 ± 2
1237 K | 205 ± 2
1245 K | 205 ± 2
